Measurements published in patent publication US20030104473A1, “Common ligand mimics: benzimidazoles” (priority 2001, published 2003).
Read-outs that look alike come from different tables or passages of the source.

Legend:
[1] = molecular target: dihydrodipicolinate reductase (DHPR) (Escherichia coli, UniProt P04036); experiment: DHPR kinetic assay, spectrophotometric oxidation of NADPH at 340 nm; type: biochemical
Method: For DHPR analysis, the compounds were screened using a kinetic protocol that spectrophotometrically evaluates oxidation of NADPH.
Stock solutions of each of the reagents were prepared in the following concentrations. Dilutions of the stock solutions were prepared prior to running the assay in the concentrations indicated below. DHPR was diluted in 10 mM HEPES at a pH of 7.4. DHPS (dihydrodipicolinate synthase) was not diluted and was stored in eppindorf tubes.
The L-ASA (L-aspartate semialdehyde) solution was prepared in the following manner. […] stock solution of ASA was prepared. 100 μl of the ASA stock solution was mixed with 150 μl of concentrated NaHCO3 and 375 μl of H2O. For use in the assay, 28.8 mM L-ASA was equal to 625 μl of the solution. The L-ASA stock Aft solution was kept at a temperature of −20° C. After dilution, the pH of the 28.8 mM solution was checked and maintained between 1 and 2.
The DHPS reaction was monitored at 340 nm prior to and after addition of the inhibitor to detect background reaction with the inhibitor. The solution for background detection was a 945 μl solution containing 0.1 HEPES (pH 7.8), 1 mM pyruvate, 6 μM NADPH, 40 μM L-ASA, and 7 μl of 1 mg/ml DHPS at 25° C. in the volumes provided above. The sample solution was then mixed and incubated for 10 minutes. Next, 500 nM solutions of the inhibitors and enough DMSO to provide a final DMSO concentration of 5% of the total assay volume were added. The solution was mixed and incubated for an additional 6 minutes.
In DHPR samples, 5 μl of the diluted DHPR enzyme were added. The sample was mixed for 20 seconds and then the reaction was run for 10 minutes. After a 50 second lag, the samples were read in a Cary spectrophotometer at 340 nm. Reading of the samples was continued until 300 seconds. Cuvette #1 contained the control reaction (no inhibitor), and cuvette #2 contained the positive control reaction in which Cibacron Blue at 2.58 μM was substituted for inhibitor to yield 70 to 80% inhibition. The substrate was kept at a level at least 10 times the Km. The final concentration of L-ASA was about 1 mM.

[2] = molecular target: 1-deoxy-D-xylulose-5-phosphate reductase (DOXPR) (Escherichia coli, UniProt P45568); experiment: DOXPR kinetic assay, spectrophotometric oxidation of NADPH at 340 nm; type: biochemical; details: Cibacron Blue at 10.32 μM; read-out: inhibition of DOXPR (positive control)
Method: For DOXPR analysis, the compounds were screened using a kinetic protocol that spectrophotometrically evaluates oxidation of NADPH.
Stock solutions of each of the reagents were prepared in the following concentrations. Dilutions of the stock solutions were prepared prior to running the assay in the concentrations indicated below. DOXPR was diluted in 10 mM HEPES at a pH of 7.4.
The DOXPR reaction was monitored at 340 nm prior to and after addition of the inhibitor to detect background reaction with the inhibitor. Solutions of the inhibitors in DMSO were prepared to provide a final DMSO concentration of 5% of the total assay volume. These solutions were incubated for 6 minutes at 25° C. in a 990 μl of a solution containing 0.1 M HEPES, pH 7.4, 1 mM MnCl21.15 mM DOXP, and 8 μM NADPH. The oxidation reaction was then initiated with 10 μl of DOXP reductoisomerase (10 μg/ml). After the enzyme was added, the solution was mixed for 20 seconds, and the reaction was run for 10 minutes. After a 50 second lag, the samples were read in a Cary spectrophotometer at 340 nm. Reading of the samples was continued until 300 seconds. Cuvette #1 contained the control reaction (no inhibitor), and cuvette #2 contained the positive control reaction in which Cibacron Blue at 10.32 μM was substituted for inhibitor to yield 70 to 80% inhibition. The substrate was kept at a level at least 10 times the Km.

[3] = molecular target: T1, lactate dehydrogenase (LDH) (Oryctolagus cuniculus, UniProt P13491); experiment: LDH kinetic assay, spectrophotometric oxidation of NADH at 340 nm; type: biochemical, Rabbit Muscle; details: Cibacron Blue at 10.3 μM; read-out: inhibition of LDH (positive control)
T1 construct: 10 μl of LDH from Rabbit Muscle; from tissue; host or cells: rabbit muscle
Method: For LDH analysis, the compounds were screened using a kinetic protocol that spectrophotometrically evaluates oxidation of NADH.
(§1) Stock solutions of each of the reagents were prepared in the following concentrations. Dilutions of the stock solutions were prepared prior to running the assay in the concentrations indicated below.
The LDH reaction was monitored at 340 nm prior to and after addition of the inhibitor to detect background reaction with the inhibitor. Solutions of 100 μl of the inhibitors in DMSO were prepared to provide a final DMSO concentration of 5% of the total assay volume. These solutions were incubated for 6 minutes at 25° C. in a 990 μl of a solution containing 0.1 M HEPES, pH 7.4, 10 μM NADH, and 2.5 mM of pyruvate. The reaction was then initiated with 10 μl of LDH from Rabbit Muscle (0.5 μg/ml; 1:2000 dilution of 1.0 mg/ml). After the enzyme was added, the solution was mixed for 20 seconds, and the reaction was run for 10 minutes. After a 50 second lag, the samples were read in a Cary spectrophotometer at 340 nm. Reading of the samples was continued until 300 seconds. Cuvette #1 contained the control reaction (no inhibitor), and cuvette #2 contained the positive control reaction in which Cibacron Blue at 10.3 μM was substituted for inhibitor to yield 50 to 70% inhibition. The substrate was kept at a level at least 10 times the Km.

[4] = molecular target: T2, alcohol dehydrogenase (ADH) (Saccharomyces cerevisiae, UniProt P00330); experiment: ADH kinetic assay, spectrophotometric reduction of NAD+ at 340 nm; type: biochemical, Bakers Yeast; details: Cibacron Blue at 15.5 μM; read-out: inhibition of ADH (positive control)
T2 construct: 10 μl of ADH from Bakers Yeast; host or cells: baker's yeast
T2 sequence (P00330 1-348): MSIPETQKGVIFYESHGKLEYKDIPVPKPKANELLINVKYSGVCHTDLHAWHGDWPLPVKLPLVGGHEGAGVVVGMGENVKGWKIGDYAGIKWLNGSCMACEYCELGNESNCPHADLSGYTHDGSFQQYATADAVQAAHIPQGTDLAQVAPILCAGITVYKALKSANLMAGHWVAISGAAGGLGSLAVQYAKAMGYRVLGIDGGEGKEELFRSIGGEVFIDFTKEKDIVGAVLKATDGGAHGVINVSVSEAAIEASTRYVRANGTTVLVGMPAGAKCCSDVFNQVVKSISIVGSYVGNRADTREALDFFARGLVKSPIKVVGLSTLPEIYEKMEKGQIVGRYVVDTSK
Method: For ADH analysis, the compounds were screened using a kinetic protocol that spectrophotometrically evaluates reduction of NAD+.
as §1
The ADH reaction was monitored at 340 nm prior to and after addition of the inhibitor to detect background reaction with the inhibitor. Solutions of 100 μl of the inhibitors in DMSO were prepared to provide a final DMSO concentration of 5% of the total assay volume. These solutions were incubated for 6 minutes at 25° C. in a 990 μl of a solution containing 0.1 M HEPES, pH 8.0, 80 μM NAD+, and 130 mM of ethanol. The reaction was then initiated with 10 μl of ADH from Bakers Yeast ([…]; 1:400 dilution of 1.0 mg/ml). After the enzyme was added, the solution was mixed for 20 seconds, and the reaction was run for 10 minutes. After a 50 second lag, the samples were read in a Cary spectrophotometer at 340 nm. Reading of the samples was continued until 300 seconds. Cuvette #1 contained the control reaction (no inhibitor), and cuvette #2 contained the positive control reaction in which Cibacron Blue at 15.5 μM was substituted for inhibitor to yield 50 to 60% inhibition. The substrate was kept at a level at least 10 times the Km. The final concentration of […] was about 2.5 mM.
Where only a simple read was desired, as in the case of NAD+ concentration determination, 13 μl (10 M stock) of ethanol was used to drive the reaction, and 10 μl of pure enzyme (1 mg/ml) was used. NAD+was soluble at 2 mM, which allowed the concentration determination step to be skipped. In this situation, the procedure was as follows. All of the ingredients except for the enzyme were mixed together. The solution was mixed well and the absorbance at 340 nm read. The enzyme was added and read again at OD 340 after the absorbance stopped changing, generally 10 to 15 minutes after the enzyme was added.

[5] = Example 14, common ligand mimics (FIG. 8), read-out: IC50 for DHPR
[6] = Example 15, bi-ligands (FIG. 9), read-out: IC50 value for dihydrodipicolinate reductase (DHPR)

Sequence of dihydrodipicolinate reductase (DHPR) (P04036 whole entry): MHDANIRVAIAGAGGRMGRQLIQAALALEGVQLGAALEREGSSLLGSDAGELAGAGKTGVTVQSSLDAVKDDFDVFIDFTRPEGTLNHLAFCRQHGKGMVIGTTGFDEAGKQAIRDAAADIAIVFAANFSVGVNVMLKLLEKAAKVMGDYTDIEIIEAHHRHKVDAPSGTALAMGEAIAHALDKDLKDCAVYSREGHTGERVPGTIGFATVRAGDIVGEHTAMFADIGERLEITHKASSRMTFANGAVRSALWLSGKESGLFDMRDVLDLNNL
Sequence of 1-deoxy-D-xylulose-5-phosphate reductase (DOXPR) (P45568 whole entry): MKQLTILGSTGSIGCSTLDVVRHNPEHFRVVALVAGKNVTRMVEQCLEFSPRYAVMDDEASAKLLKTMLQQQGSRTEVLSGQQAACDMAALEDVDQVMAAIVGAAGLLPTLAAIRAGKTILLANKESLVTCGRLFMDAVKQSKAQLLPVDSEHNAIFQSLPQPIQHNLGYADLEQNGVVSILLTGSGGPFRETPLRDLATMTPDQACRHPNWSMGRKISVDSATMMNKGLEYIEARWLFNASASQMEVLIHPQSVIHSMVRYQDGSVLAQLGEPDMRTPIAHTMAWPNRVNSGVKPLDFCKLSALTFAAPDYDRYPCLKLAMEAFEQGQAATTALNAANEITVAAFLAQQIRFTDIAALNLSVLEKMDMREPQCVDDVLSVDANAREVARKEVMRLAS

Compound	IC50 [1, 5] [µM]	IC50 [1, 6] [µM]	also measured
Cc1ccc2[nH]c(-c3ccc(-c4ccc(C(=O)O)cc4)o3)nc2c1 [compound 6c, 4-[5-(5-methyl-1-benzoimidazol-2-yl)furan-2-yl]-benzoic acid]	> 60		
O=C(NCCSc1cc(C(=O)O)nc(C(=O)O)c1)c1ccc(-c2ccc(-c3nc4cc([N+](=O)[O-])ccc4[nH]3)o2)cc1 [compound 21a, 4-(2-{4-[5-(5-nitro-1H-benzoimidazol-2-yl)-furan-2-yl]-benzoylamino)-ethylsulfanyl)-pyridine-2,6-dicarboxylic acid]		~0.758	
Nc1c(S(=O)(=O)O)cc(Nc2ccc(Nc3nc(Cl)nc(Nc4ccccc4S(=O)(=O)O)n3)c(S(=O)(=O)O)c2)c2c1C(=O)c1ccccc1C2=O [Cibacron Blue, reference compound]			inhibition at 10.32 µM [2]: 70 to 80%; inhibition at 10.3 µM [3]: 50 to 70%; inhibition at 15.5 µM [4]: 50 to 60%; inhibition at 2.58 µM ([1]; Cibacron Blue at 2.58 μM, read-out: inhibition of DHPR (positive control)): 70 to 80%
COC(=O)c1ccc(-c2ccc(-c3nc4cc([N+](=O)[O-])ccc4[nH]3)o2)cc1 [4-[5-(5-nitro-1H-benzoimidazol-2-yl)-furan-2-yl]-benzoic acid methyl ester]	> 25		
Cc1cccc2[nH]c(-c3ccc(-c4ccc(C(=O)O)cc4)o3)nc12 [compound 6a, 4-[5-(4-methyl-1H-benzimidazol-2-yl)-furan-2-yl]-benzoic acid]	> 100		
O=C(NCCSc1cc(C(=O)O)nc(C(=O)O)c1)c1ccc(-c2ccc(-c3nc4ccccc4[nH]3)o2)cc1 [compound 21b, 4-(2-{4-[5-(1H-benzoimidazol-2-yl)-furan-2-yl]-benzoylamino}-ethylsulfanyl)-pyridine-2,6-dicarbolxylic acid]		> 1.6	
